Assays:
Format in all cases: cell-based
U2OS cells [1] = experiment: Change in motion speed by motor protein inhibitor (phase contrast imaging, average motion speed); settings: imaging time 60 minutes
Protocol: Images (moving image) of U2OS cells cultured at different medicine concentrations were captured with a phase contrast microscope. […] For the AMP-PNP, three types of cells respectively having medicine concentrations of 67, 200, and 670 micro M and a comparative cell to which nothing is administered were prepared. For the ATA, three types of cells respectively having medicine concentrations of 10, 30, and 100 micro M and a comparative cell to which nothing is administered were prepared. The magnification power of the microscope was 20×, the imaging interval was 5 frames per second, and the imaging time was 60 minutes. After motion vectors were calculated at intervals of approximately 1 micrometer, an average of the motion amount per unit time (motion speed) was calculated, to create a graph.
FIG. 27 is a graph of a motion speed for the cells to which AMP-PNP is administered at different medicine concentrations. FIG. 28 is a graph of a motion speed for the cells to which ATA is administered at different medicine concentrations.

U2OS cells [2] = experiment: Change in motion speed by metabolic inhibition with mitochondrial uncoupler (phase contrast imaging, relative motion area); settings: U2OS cells, 0.5, 5 and 50 micro M, imaging time 20 minutes, versus comparative cell (FIG. 26)
Protocol: Images (moving image) of U2OS cells cultured at different medicine concentrations were captured with a phase contrast microscope. A medicine was CCCP, which is a mitochondrial uncoupler used as a metabolic inhibitor. Three types of cells respectively having medicine concentrations of 0.5, 5, and 50 micro M and a comparative cell to which nothing is administered were prepared. The magnification power of the microscope was 20×, the imaging interval was 5 frames per second, and the imaging time was 20 minutes. After motion vectors were calculated at intervals of approximately 1 micrometer, a relative motion area was calculated to create a graph.
FIG. 26 is a graph of a relative motion area for the cells cultured at different medicine concentrations.

U2OS cells [3] = experiment: Change in motion speed by microtubule disruption (phase contrast imaging, motion vector analysis); settings: 2 micro M, imaging time 20 minutes; for motion area in color map of motion speed: versus comparative cell (FIGS. 20, 22, 24); for relative motion area (proportion of the motion area to the cell area): versus comparative cell to which nothing is administered (FIG. 25)
Protocol: Images (moving image) of U2OS cells cultured on different conditions were captured with a phase contrast microscope. Three types of cells, i.e., a cell to which Paclitaxel of 2 micro M is administered, a cell to which Nocodazole of 2 micro M is administered, and a comparative cell to which nothing is administered, were prepared. The Paclitaxel stabilizes a microtubule. The Nocodazole destabilizes a microtubule. The magnification power of the microscope was 20×, the imaging interval was 5 frames per second, and the imaging time was 20 minutes. After motion vectors were calculated at intervals of approximately 1 micrometer, a spatiotemporal average of the motion amount per unit time (motion speed) of each coordinate was calculated, to create a color map. Further, on the basis of the proportion of the cell within the captured image, a cell area and a motion area indicating a motion speed larger than a predetermined motion speed were calculated, and a relative motion area indicating a proportion of the motion area to the cell area was specified, to create a graph.
FIG. 19 is a phase-contrast image of a comparative cell to which nothing is administered, and FIG. 20 is a color map of the comparative cell. FIG. 21 is a phase-contrast image of a cell to which Paclitaxel is administered, and FIG. 22 is a color map of the cell. FIG. 23 is a phase-contrast image of a cell to which Nocodazole is administered, and FIG. 24 is a color map of the cell. FIG. 25 is a graph of a relative motion area for the cells cultured on those three conditions.

Nc1ncnc2c1ncn2[C@@H]1O[C@H](COP(=O)(O)OP(=O)(O)NP(=O)(O)O)[C@@H](O)[C@H]1O [AMP-PNP]
motion speed (average of the motion amount per unit time) (U2OS cells [1]; U2OS cells, 67, 200 and 670 micro M, versus comparative cell (FIG. 27)): the value of the motion speed decreases in accordance with an increase of the medicine concentration

O=C(O)C1=CC(=C(c2ccc(O)c(C(=O)O)c2)c2ccc(O)c(C(=O)O)c2)C=CC1=O [ATA]
motion speed (average of the motion amount per unit time) (U2OS cells [1]; U2OS cells, 10, 30 and 100 micro M, versus comparative cell (FIG. 28)): the value of the motion speed decreases in accordance with an increase of the medicine concentration

N#CC(C#N)=NNc1cccc(Cl)c1 [CCCP]
relative motion area (U2OS cells [2]): the value of the relative motion area decreases in accordance with an increase of the concentration of CCCP

COC(=O)Nc1nc2ccc(C(=O)c3cccs3)cc2[nH]1 [Nocodazole]
motion area in color map of motion speed (U2OS cells [3]): the motion area obviously shrinks in the color map | relative motion area (proportion of the motion area to the cell area) (U2OS cells [3]): the value of the relative motion area decreases

CC(=O)O[C@H]1C(=O)[C@@]2(C)[C@H]([C@H](OC(=O)c3ccccc3)[C@]3(O)C[C@H](OC(=O)[C@H](O)[C@@H](NC(=O)c4ccccc4)c4ccccc4)C(C)=C1C3(C)C)[C@]1(OC(C)=O)CO[C@@H]1C[C@@H]2O [Paclitaxel]
motion area in color map of motion speed (U2OS cells [3]): do not have difference in color map | relative motion area (proportion of the motion area to the cell area) (U2OS cells [3]): do not have difference in color map and in value of the relative motion area
